# How the values were obtained:
# MDA-MB-435 = assay: Cytotoxicity against human MDA-MB-435 cells treated for 72 hrs; assay type: functional, cell-based; details: MDA-MB-435, 72 h
# OVCAR-3 = assay: Cytotoxicity against human OVCAR-3 cells treated for 72 hrs; assay type: functional, cell-based; details: OVCAR-3, 72 h
# [1] = Lipophilicity, logD of compound at pH 7.4; assay type: physicochemical; details: buffer
# [2] = Relative solubility of compound by measuring ratio of solubility of compound to solubility of Eupenifeldin; assay type: physicochemical
# [3] = Aqueous solubility of compound; assay type: physicochemical; details: buffer
SMILES,IC50 (MDA-MB-435),IC50 (OVCAR-3),logD ([1]; read-out: logD),Ratio [2],solubility [3],logD [1]
CCN(CC)C(=O)Oc1cc2c(ccc1=O)C[C@H]1CC(C)(C)/C=C/C[C@]3(C)Oc4cc(OC(=O)N(CC)CC)c(=O)cc(C)c4C[C@H]3C[C@H](O)[C@@]1(C)O2,> 250 nM,189 nM,5.9,2 10^-2No_unit,,
Cc1cc(=O)c(O)cc2c1C[C@H]1C[C@H](OC(=O)CCC(=O)O)[C@@]3(C)Oc4cc(O)c(=O)ccc4C[C@H]3CC(C)(C)/C=C/C[C@]1(C)O2,441 nM,157 nM,1,40,66.3 µg/mL,
Cc1cc(=O)c(OC(=O)C(C)(C)C)cc2c1C[C@H]1C[C@H](O)[C@@]3(C)Oc4cc(OC(=O)C(C)(C)C)c(=O)ccc4C[C@H]3CC(C)(C)/C=C/C[C@]1(C)O2,80 nM,141 nM,6.9,6 10^-3No_unit,,
COCCOC(=O)Oc1cc2c(ccc1=O)C[C@H]1CC(C)(C)/C=C/C[C@]3(C)Oc4cc(OC(=O)OCCOC)c(=O)cc(C)c4C[C@H]3C[C@H](O)[C@@]1(C)O2,101 nM,> 250 nM,4.6,0.2,,
Cc1cc(=O)c(OC(=O)C2CC2)cc2c1C[C@H]1C[C@H](O)[C@@]3(C)Oc4cc(OC(=O)C5CC5)c(=O)ccc4C[C@H]3CC(C)(C)/C=C/C[C@]1(C)O2,77 nM,> 250 nM,5.3,5 10^-3No_unit,,
CC(=O)O[C@H]1C(=O)[C@@]2(C)[C@H]([C@H](OC(=O)c3ccccc3)[C@]3(O)C[C@H](OC(=O)[C@H](O)[C@@H](NC(=O)c4ccccc4)c4ccccc4)C(C)=C1C3(C)C)[C@]1(OC(C)=O)CO[C@@H]1C[C@@H]2O [PACLITAXEL],,0.1 nM,,,,
CC(=O)Oc1cc2c(ccc1=O)C[C@H]1CC(C)(C)/C=C/C[C@]3(C)Oc4cc(OC(C)=O)c(=O)cc(C)c4C[C@H]3C[C@H](O)[C@@]1(C)O2,53 nM,> 250 nM,4.6,0.1,,
CC(=O)Oc1cc2c(ccc1=O)C[C@H]1CC(C)(C)/C=C/C[C@]3(C)Oc4cc(OC(C)=O)c(=O)cc(C)c4C[C@H]3C[C@H](OC(C)=O)[C@@]1(C)O2,72 nM,193 nM,5.5,4 10^-2No_unit,,
Cc1cc(=O)c(OCc2ccccc2)cc2c1C[C@H]1C[C@H](O)[C@@]3(C)Oc4cc(OCc5ccccc5)c(=O)ccc4C[C@H]3CC(C)(C)/C=C/C[C@]1(C)O2,97 nM,> 250 nM,7.5,2 10^-4No_unit,,
Cc1cc(=O)c(OC(=O)N(c2ccccc2)c2ccccc2)cc2c1C[C@H]1C[C@H](O)[C@@]3(C)Oc4cc(OC(=O)N(c5ccccc5)c5ccccc5)c(=O)ccc4C[C@H]3CC(C)(C)/C=C/C[C@]1(C)O2,> 250 nM,228 nM,,,,9.8
COCCOC(=O)Oc1cc2c(c(C)cc1=O)C[C@H]1C[C@H](O)[C@@]3(C)Oc4cc(O)c(=O)ccc4C[C@H]3CC(C)(C)/C=C/C[C@]1(C)O2,31 nM,76 nM,4.3,0.4,,

# From ChEMBL document CHEMBL5584257, “Semisynthetic derivatives of the fungal metabolite eupenifeldin via targeting the tropolone hydroxy groups” (Bioorg Med Chem Lett, 2024)
